# Measured values published in patent US20250134952A1, “METHODS FOR IMPROVING THE EFFICACY OF HDAC INHIBITOR THERAPY AND PREDICTING THE RESPONSE TO TREATMENT WITH HDAC INHIBITOR” (INSTITUT NATIONAL DE LA SANTÉ ET DE LA RECHERCHE MÉDICALE, priority 2021, published 2025).
# Key:
# [1] = system: HP1α clusters in MCF7shctrl and shTau cells; assay: HP1α clusters per nucleus, confocal immunofluorescence; format: cell-based, human; details: 100 nM TSA, 24 h
# Method: (A) Representative confocal sections of MCF7shctrl and shTau cells untreated or treated with 100 nM TSA for 24 h. […] (B) Quantification of HP1α clusters per nuclei visualized as described previously and realized on three independent experiments. (C) GADD45a and (D) p21 (CDKN1a) expression in MCF7shctrl and shTau cells untreated or treated with 100 nM TSA for 24 h were analyzed by real-time PCR and normalized to RPLO. Results are expressed, relative to the basal activity set to 1, as the mean±SD of three independent assays. (E) Tau tethering prevents adjacent reporter gene activity induced by TSA. GAL4UAS responsive luciferase reporter Hela stable cell line was transfected with GAL4DBD (GAL4) or GAL4DBD-Tau4R and then, 24 h later, treated with TSA (600 nM) for 24 h. The luciferase activity was determined as described in the Materials and Methods. (F) Ectopic Tau4R expression prevents adjacent reporter gene activity induced by TSA. […] The luciferase activity was determined as described in the Materials and Methods. […]
# MCF7shctrl, MCF7shTau or transfected Hela cells with Tau4R and GFP-HP1α were fixed in 4% paraformaldehyde for 30 min at room temperature. […] Slides were then analyzed with a Zeiss LSM710 confocal laser scanning microscope (60× magnification). Images were collected in the Z direction at 0.80 μm intervals and quantifications were realized using the Image J plug-in.
# [2] = system: p21 promoter in MCF7shctrl or shTau cells; assay: ChIP-qPCR of H3 acetylation and Tau occupancy on the p21 promoter; format: cell-based, human; details: for acetylated H3 enrichment compared to IgG: p21 promoter (transcription start site region)
# From the text: (A) Chromatin immunoprecipitations-qPCR analysis of H3 acetylation and Tau occupancy on the GAPDH promoter in MCF7shctrl cells in the indicated conditions. MCF7shctrl cells were subjected to cross-linking by 1% formaldehyde. Chromatin fragments were then immunoprecipitated using antibodies (Ab) against acetylated H3 (ac-H3) or Tau and analyzed by quantitative PCR for the presence of the GAPDH promoter. (B) Functional organization of the p21 promoter. (C) ChIP-qPCR analysis of H3 acetylation in MCF7shctrl or shTau cells or (D) Tau occupancy in MCF7shctrl cells on the p21 promoter. (E) ChIP-qPCR analysis of H3 acetylation or Tau occupancy on the stably transfected GAL4UAS responsive luciferase reporter transfected, or not, with Tau4R, then 24 h later treated with 100 nM TSA for 24 h. Cells were then subjected to cross-linking by 1% formaldehyde. Chromatin fragments were then immunoprecipitated using antibodies (Ab) against acetylated H3 or Tau and analyzed by quantitative PCR for the presence of the GAL4 UAS promoter. Quantification of enrichment is represented as fold-enrichment relative to IgG. Data are mean±SD **P<0.01***P<0.001
# The ChIP protocol used was previously described (Lefebvre et al., 2006). Primers sequences for the pGL4.31[luc2P/GAL4 UAS/Hygro] promoter were: forward, 5′-[…]-3′ (SEQ ID N^o1), and reverse, 5′-[…]-3′ (SEQ ID N^o2); for p21 promoter: distal forward 5′-[…]-3′ (SEQ ID N^o3) and reverse 5′-[…]-3′ (SEQ ID N^o4); proximal forward 5′-[…]-3′ (SEQ ID N^o5) and reverse 5′-[…]-3′ (SEQ ID N^o6); p21 (transcription start site) TSS forward: 5′-[…]-3′ (SEQ ID N^o7) and reverse 5′-GCTCTCTCACCTCCTCTG3′ (SEQ ID N^o8); for GAPDH TSS: forward 5′-[…]-3′ (SEQ ID N^o9) and reverse 5′-[…]-3′ (SEQ ID N^o10). Antibodies used in the studies included the following: anti-acetylated H3 (Active motif, 39139) and anti-Tau1 (Millipore, MAB3420). All ChIP analyses were performed in at least two independent experiments.
# To test this hypothesis, we next performed chromatin immunoprecipitations assays. Antibodies specific for acetylated H3 (ac-H3) and Tau were used to immunoprecipitate formaldehyde-cross-linked sonicated chromatin from short hairpin Tau knockdowns and control cells treated, or not, with 100 nM TSA. Quantitative PCR analysis of input or immunoprecipitated DNA using acetylated H3 and Tau antibodies was carried out to detect different promoter regions. As a control of non-TSA-inducible gene, we first used primers encompassing the transcription start site of the GAPDH promoter. No change in the level of acetylated H3, nor Tau binding, were detected after TSA treatment (FIG. 3A). […] In addition, Tau was detected at the level of these regions in MCF7shctrl cells (≈4-fold enrichment) in absence or presence of TSA treatment (FIG. 3D).
structure (smiles),measurement,setting,value
"CC(/C=C/C(=O)NO)=C\[C@@H](C)C(=O)c1ccc(N(C)C)cc1 [TSA, 2,4-Heptadienamide, 7-[4-(dimethylamino)phenyl]-N-hydroxy-4,6-dimethyl-7-oxo-, (2E,4E,6R)-]",HP1α clusters per nucleus,[1]; Tau knocked down MCF7 cells,3 clusters
same,HP1α clusters per nucleus,[1]; sh-control MCF7 cells,five
same,acetylated H3 enrichment compared to non-treated cells,"[2]; 100 nM TSA, MCF7shTau cells, p21 proximal and distal regions",≈ 10 fold
same,acetylated H3 enrichment compared to IgG,"[2]; 100 nM TSA, shctrl cells",70 fold
same,Tau enrichment (occupancy),"[2]; MCF7shctrl cells, p21 proximal and distal regions, in absence or presence of TSA treatment",≈ 4 fold
same,acetylated H3 enrichment compared to IgG,"[2]; shTau cells, irrespective of TSA treatment",≈ 160 fold
